Biological target: cAMP and cAMP-inhibited cGMP 3',5'-cyclic phosphodiesterase 10A (Homo sapiens, UniProt Q9Y233)
Assay: PDE10A assay
Description: Compounds were diluted in 20 mM HEPES/NaOH (pH 7.5), 10 mM MgCl2 and 0.05 mg/ml bovine serum albumin. A fixed amount of 2 ng/well human PDE10A enzyme was added and incubated at room temperature for 15 min under agitation. The reaction was started by the addition of the substrate cocktail [3H]cGMP (Perkin Elmer NET337001MC, S.A. 13.5 Ci/mmol) / cGMP at a final concentration of 50 nM and incubated for an additional 15 min. The reaction was stopped by the addition of 0.5 mg/well of Y-Si SPA beads. The plates were shaken for 1 h, followed by a brief centrifugation (170 g for 1 min). The radioactivity bound to the beads was estimated using a TopCount (Perkin-Elmer). For the determination of IC50 values, a four parameters logistics equation was used. pIC50 is defined as − log10(IC50).

Structure (SMILES) | IC50
CCc1nc2ccc(OCc3cccc(N4CCCC4)n3)nn2c1C [2-ethyl-3-methyl-6-((6-(pyrrolidin-1-yl)pyridin-2-yl)methoxy)imidazo[1,2-b]pyridazine] | 547 nM
Cc1nc2ccccc2nc1OCc1cccc(N2CCCC2)n1 [2-methyl-3-((6-(pyrrolidin-1-yl)pyridin-2-yl)methoxy)quinoxaline] | 38 nM
c1cc(COc2nc(N3CCOCC3)c3ccccc3n2)nc(N2CCCC2)c1 [4-(2-((6-(pyrrolidin-1-yl)pyridin-2-yl)methoxy)quinazolin-4-yl)morpholine] | 58 nM
Cc1cc(C)n2nc(CCc3cncc(N4CCCC4)n3)nc2n1 [5,7-dimethyl-2-(2-(6-(pyrrolidin-1-yl)pyrazin-2-yl)ethyl)-[1,2,4]triazolo-[1,5-a]pyrimidine] | 307 nM
CN(C)c1nc(OCc2cccc(N3CCCC3)n2)nc2ccc(Cl)cc12 [6-chloro-n,n-dimethyl-2-((6-(pyrrolidin-1-yl)pyridin-2-yl)methoxy)quinazolin-4-amine] | 7.71 nM
CCN(C)C(=O)c1cnn(C)c1C(=O)Nc1ccn2cc(-c3cccc(OCCCF)c3)nc2n1 [Roche-Dataset for PDE10A, Compound 1] | 6.05 nM
COCCN(C)C(=O)c1cnn(C)c1C(=O)Nc1ccn2cc(-c3cccc(OCCCF)c3)nc2n1 [Roche-Dataset for PDE10A, Compound 3] | 15 nM
CCN(C)C(=O)c1cnn(C)c1C(=O)Nc1ccn2cc(-c3cccc(OCC(=O)OC)c3)nc2n1 [Roche-Dataset for PDE10A, Compound 20] | 7.93 nM
CCN(C)C(=O)c1cnn(CCF)c1C(=O)Nc1ccn2cc(-c3ccccc3)nc2n1 [Roche-Dataset for PDE10A, Compound 26] | 10000 nM
Cn1ncc(C(=O)N2CCC2)c1C(=O)Nc1ccn2cc(-c3cccc(OCCCF)c3)nc2n1 [Roche-Dataset for PDE10A, Compound 28] | 7.34 nM
Cn1cc(-c2ccccc2)nc1CCNC(=O)c1nc(C2CC2)cnc1Nc1cncnc1 [Roche-Dataset for PDE10A, Compound 36] | 16 nM
COC[C@H]1CCCN1c1nc(CCc2nc3c(C)ncc(C)n3n2)n(Cc2ccc(OC)cc2)n1 [Roche-Dataset for PDE10A, Compound 38] | 15 nM
CCN(C)C(=O)c1cnn(C)c1C(=O)Nc1ccn2cc(-c3cccc(OCCO)c3)nc2n1 [Roche-Dataset for PDE10A, Compound 39] | 8.81 nM
Cc1cc(-n2nc(CCc3nc4c(C(F)(F)F)cc(Cl)c(C)n4n3)nc2N2CCCC2)ccn1 [Roche-Dataset for PDE10A, Compound 40] | 9.83 nM
CN(C)C(=O)c1cnn(C)c1C(=O)Nc1ccn2cc(-c3cccc(OCCCF)c3)nc2n1 [Roche-Dataset for PDE10A, Compound 43] | 7.17 nM
COCCN(C)C(=O)c1cnn(C)c1C(=O)Nc1ccn2cc(-c3cccc(OCCF)c3)nc2n1 [Roche-Dataset for PDE10A, Compound 45] | 13 nM
CC(C)n1ncc2cc(CCc3nc(-c4ccccc4)cn3C)ncc21 [Roche-Dataset for PDE10A, Compound 48] | 859 nM

Structure (SMILES) | IC50
Cn1cc(-c2ccccc2)nc1CCc1nc2cccc(Cl)c2c(=O)[nH]1 [Roche-Dataset for PDE10A, Compound 52] | 122 nM
Cn1cc(-c2ccccc2)nc1COc1ncc(C2CC2)nc1C(=O)NCc1ccccc1 [Roche-Dataset for PDE10A, Compound 59] | 57 nM
Cc1nc2ccccc2nc1CCc1nc(-c2ccccc2)cn1CC1CC1 [Roche-Dataset for PDE10A, Compound 62] | 9.29 nM
Cc1cc(Cl)cc2c(=O)[nH]c(CCc3nc(-c4ccccc4)cn3C)nc12 [Roche-Dataset for PDE10A, Compound 70] | 81 nM
Cc1nc2ccccc2nc1CCc1nc(-c2ccccc2)cn1CC(F)(F)F [Roche-Dataset for PDE10A, Compound 72] | 178 nM
Cc1cccc2c(=O)[nH]c(CCc3nc(-c4ccccc4)cn3C)nc12 [Roche-Dataset for PDE10A, Compound 74] | 15 nM
Cc1nc(C(=O)N2CCC2)c(C(=O)Nc2ccn3nc(-c4ccccc4)nc3c2)n1C [Roche-Dataset for PDE10A, Compound 75] | 20 nM
COCCN(C)C(=O)c1cnn(C)c1C(=O)Nc1ccn2cc(-c3cccc(F)n3)nc2n1 [Roche-Dataset for PDE10A, Compound 81] | 163 nM
Cn1ncc(C(=O)NCCOCCO)c1C(=O)Nc1ccn2nc(-c3ccccc3)nc2c1 [Roche-Dataset for PDE10A, Compound 84] | 14 nM
O=C(Nc1ccn2nc(-c3ccccc3)nc2c1)c1cc(Cl)nc(N2CCCCC2)c1 [Roche-Dataset for PDE10A, Compound 86] | 52 nM
CCn1cc(-c2ccccc2)nc1CCc1nc2ccccc2nc1C [Roche-Dataset for PDE10A, Compound 87] | 41 nM
Cn1cc(-c2ccccc2)nc1CCNC(=O)c1cccn2c(C3CC3)nnc12 [Roche-Dataset for PDE10A, Compound 92] | 43 nM
Cn1cc(-c2ccccc2)nc1CCc1nc2ccc(Cl)cc2c(=O)[nH]1 [Roche-Dataset for PDE10A, Compound 93] | 9.14 nM
Cn1cc(-c2ccccc2)nc1CCc1nc(-c2ccccc2)cc(=O)[nH]1 [Roche-Dataset for PDE10A, Compound 94] | 987 nM
CN(c1cncnc1)c1ccc(C2CC2)nc1C(=O)N[C@@H]1CCN(c2ccc(Br)cn2)C1 [Roche-Dataset for PDE10A, Compound 95] | 8340 nM
Cc1cc(CNC(=O)c2cnn(C)c2C(=O)Nc2ccn3cc(-c4ccccc4)nc3n2)n[nH]1 [Roche-Dataset for PDE10A, Compound 99] | 17 nM

The next compounds have a lower IC50 than those just listed; values first:

IC50 | Structure (SMILES)
5.36 nM | Cn1ncc(C(=O)N2CCC2)c1C(=O)Nc1ccn2nc(-c3cccc(OCCF)n3)nc2c1 [Roche-Dataset for PDE10A, Compound 66]
4.74 nM | Cc1c(C(F)F)nc2ccc(C#Cc3nc(N4CCCC4)nn3C)nn12 [2-(Difluoromethyl)-3-methyl-6-((1-methyl-3-(pyrrolidin-1-yl)-1H-1,2,4-triazol-5-yl)ethynyl)imidazo[1,2-b]pyridazine]
3.92 nM | Cc1c(C(F)(F)F)nc2ccc(C#Cc3nc(N4CCCC4)n(C)n3)nn12 [3-Methyl-6-((1-methyl-5-(pyrrolidin-1-yl)-1H-1,2,4-triazol-3-yl)ethynyl)-2-(trifluoromethyl)imidazo[1,2-b]pyridazine]
3.68 nM | CN(C)c1nc(OCc2nc(-c3ccccc3)cn2C)nc2ccc(Cl)cc12 [Roche-Dataset for PDE10A, Compound 89]
3.47 nM | CCN(C)C(=O)c1cnn(C)c1C(=O)Nc1ccn2cc(-c3cccc(O)c3)nc2n1 [Roche-Dataset for PDE10A, Compound 73]
3.44 nM | Cn1cc(-c2ccccc2)nc1CCc1nc2ccccc2nc1N1CCCC1 [Roche-Dataset for PDE10A, Compound 98]
3.25 nM | CN(C)c1nc(CCc2nc(-c3ccccc3)cn2C)nc2ccc(Cl)cc12 [Roche-Dataset for PDE10A, Compound 55]
3.09 nM | CN(CCO)c1nc(OCc2nc(-c3ccccc3)cn2C)nc2ccc(Cl)cc12 [Roche-Dataset for PDE10A, Compound 19]
2.58 nM | COc1ccc(Cn2nc(CCc3nc4c(Cl)cc(Cl)c(C)n4n3)nc2N2CCCC2)cc1 [Roche-Dataset for PDE10A, Compound 37]
2.26 nM | O=C(Nc1cnc(-c2ccccn2)s1)c1nc(C2CC2)ccc1Nc1cncnc1
2.07 nM | Cc1c(Cl)cc(OCC(=O)N2CCOCC2)c2nc(CCc3nc(N4CCCC4)nn3C)nn12 [Roche-Dataset for PDE10A, Compound 23]
1.82 nM | Cc1nc2ccccc2nc1CCc1nc(-c2ccccc2)cn1-c1ccccn1 [Roche-Dataset for PDE10A, Compound 17]
1.73 nM | Cn1ncc(C(=O)N2CCC2)c1C(=O)Nc1ccn2nc(-c3ccccc3OCF)nc2c1 [Roche-Dataset for PDE10A, Compound 71]
1.41 nM | O=C(Nc1cc(-c2ccccn2)nn1C1CCOCC1)c1nc(C2CC2)ccc1Nc1cncnc1 [Roche-Dataset for PDE10A, Compound 24]
1.32 nM | O=C(Nc1cc(-c2ccccn2)nn1C1CCCCC1)c1nc(C2CC2)ccc1Nc1cncnc1
1.31 nM | Cn1cc(-c2ccccc2)nc1/C=C/c1nc(N2CCOCC2)c2cc(Cl)ccc2n1 [Roche-Dataset for PDE10A, Compound 64]
1.27 nM | Cc1c(C#N)nc2ccc(C#Cc3nc(-c4ccccc4)cn3C)nn12 [Roche-Dataset for PDE10A, Compound 79]
1.08 nM | Cn1cc(-c2ccccc2)nc1CCc1nc(N2CCOCC2)c2cc(Cl)ccc2n1 [Roche-Dataset for PDE10A, Compound 54]
1.07 nM | Cc1cc(-n2nc(N3CCCC3)nc2CCc2nc3c(C(F)(F)F)cc(Cl)c(C)n3n2)ccn1 [Roche-Dataset for PDE10A, Compound 34]
0.9 nM | Cn1ncc(C(=O)N2CCC2)c1C(=O)Nc1ccn2nc(-c3cccc(OCCF)c3)nc2c1 [Roche-Dataset for PDE10A, Compound 76]
0.85 nM | Cn1ncc(C(=O)N2CCC2)c1C(=O)Nc1ccn2nc(-c3cccc(OCF)c3)nc2c1 [Roche-Dataset for PDE10A, Compound 96]
0.64 nM | COc1ccc(Cn2nc(N3CCCC3)nc2CCc2nc3c(Cl)cc(Cl)c(C)n3n2)cc1 [Roche-Dataset for PDE10A, Compound 97]
0.35 nM | Cn1ncc(C(=O)N2CCC2)c1C(=O)Nc1ccn2nc(-c3ccccc3OCCF)nc2c1 [Roche-Dataset for PDE10A, Compound 14]
0.3 nM | Cn1ncc(C(=O)N2CCC2)c1C(=O)Nc1ccn2nc(-c3ccccc3OCCCF)nc2c1 [Roche-Dataset for PDE10A, Compound 11]
